Each structure is given as a SMILES string.

From US7825264B2, “Substituted heterocycles, their use as medicament, and pharmaceutical preparations comprising them” (sanofi-aventis, priority 2005, dated 2010) come the findings set out here.

The target in the assay is T1, Human Kv1.5 channels (Homo sapiens, UniProt P22460).
T1 construct: expressed in transfected cells; host or cells: Xenopus laevis oocytes injected with RNA synthesized in vitro
T1 sequence (P22460 whole entry): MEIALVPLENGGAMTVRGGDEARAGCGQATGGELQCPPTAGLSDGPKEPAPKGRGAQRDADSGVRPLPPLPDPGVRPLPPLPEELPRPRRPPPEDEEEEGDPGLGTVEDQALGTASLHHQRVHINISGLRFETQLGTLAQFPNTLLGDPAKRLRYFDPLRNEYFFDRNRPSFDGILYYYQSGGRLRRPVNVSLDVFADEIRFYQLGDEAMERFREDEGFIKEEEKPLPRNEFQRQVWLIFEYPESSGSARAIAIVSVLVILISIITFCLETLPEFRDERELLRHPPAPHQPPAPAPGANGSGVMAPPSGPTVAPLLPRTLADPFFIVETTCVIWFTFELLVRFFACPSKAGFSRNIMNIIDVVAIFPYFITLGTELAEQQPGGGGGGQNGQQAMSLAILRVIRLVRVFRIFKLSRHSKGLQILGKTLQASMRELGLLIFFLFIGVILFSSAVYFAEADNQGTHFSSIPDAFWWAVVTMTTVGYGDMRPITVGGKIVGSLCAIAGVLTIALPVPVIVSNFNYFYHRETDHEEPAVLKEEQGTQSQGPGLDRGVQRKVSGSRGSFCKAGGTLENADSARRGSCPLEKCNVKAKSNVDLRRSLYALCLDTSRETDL
Kind of assay: Activity on the Kv1.5 channel: two-microelectrode voltage clamp on Xenopus oocytes expressing Kv1.5. Format: cell-based. The conditions noted are these: human Kv1.5 expressed in Xenopus oocytes, room temperature, Hill equation; read-out: Kv1.5 IC-50. How it is done:
Determination of the Activity on the Kv1.5 Channel
Human Kv1.5 channels were expressed in xenopus oocytes. For this purpose, firstly oocytes were isolated from Xenopus laevis and defolliculated. Kv1.5-encoding RNA synthesized in vitro was then injected into these oocytes. After Kv1.5 protein expression for 1-7 days, Kv1.5 currents were measured on the oocytes using the two-microelectrode voltage clamp technique. The Kv1.5 channels were in this case usually activated with voltage jumps lasting 500 ms to 0 mV and 40 mV. A solution of the following composition flowed through the bath: NaCl 96 mM, KCl 2 mM, CaCl2 1.8 mM, MgCl2 1 mM, HEPES 5 mM (titrated to pH 7.4 with NaOH). These experiments were carried out at room temperature. The following were employed for data acquisition and analysis: Geneclamp amplifier (Axon Instruments, Foster City, USA) and MacLab D/A converter and software (ADInstruments, Castle Hill, Australia). The substances of the invention were tested by adding them in various concentrations to the bath solution. The effects of the substances were calculated as percent inhibition of the Kv1.5 control current which was obtained when no substance was added to the solution. The data were then extrapolated using the Hill equation in order to determine the inhibitory concentrations IC50 for the respective substances.
Turning to `CCCO[C@H](c1ccccc1)[C@@H](c1ccccn1)N1CCCC1=O` (racemic) [Example 64], the IC50 came out at 1830 nM.

`COCCO[C@H](c1ccc(Cl)cc1)[C@H](c1ccccc1)N1CCCC1=O` (racemic) [Example 47]: the IC50 was found to be 1000 nM.

As for `O=C1CCCCN1[C@@H](c1ccc(F)cc1)[C@@H](OCC1CC1)c1cccc2cccnc12` (racemic) [Example 1, 1-[(1R′,2S′)-2-Cyclopropylmethoxy-1-(4-fluorophenyl)-2-quinolin-8-ylethyl]-piperidin-2-one], the IC50 amounted to 1400 nM.

In the case of `O=C1CCCCN1[C@H](c1ccccc1)[C@@H](OCC1CC1)c1ccccc1` [Example 74], the IC50 was found to be 1400 nM.

For `N#Cc1ccc(O[C@H](c2ccc(F)c(F)c2)[C@H](c2ccc(F)cc2)N2CCCS2(=O)=O)cc1` (racemic) [Example 112], the IC50 is around 10000 nM.

As for `O=C1CCCCN1[C@@H](c1ccc(F)cc1)[C@H](OCC1CC1)c1cccc2cccnc12` (racemic) [Example 93], the IC50 turned out to be 4100 nM.

For the compound `CO[C@H](C1CCCCC1)[C@H](c1ccc(F)cc1)N1CCCC1=O` (racemic) [Example 78], the IC50 was 3300 nM.

With `O=C1CCCN1[C@@H](c1ccccn1)[C@H](OCC1CC1)c1ccccc1` (racemic) [Example 5, 1-[(1R′,2S′)-2-Cyclopropylmethoxy-2-phenyl-1-pyridin-2-ylethyl]pyrrolidin-2-one], the IC50 was determined as 1300 nM.

With `CCO[C@H](c1ccc(Cl)cc1)[C@H](c1ccccc1)N1CCCC1=O` (racemic) [Example 68], the IC50 was determined as 500 nM.

In the case of `CCCO[C@@H](c1ccc(F)cc1)[C@H](c1ccccc1)N1CCCC1=O` (racemic) [Example 25], the IC50 worked out at 450 nM.

As to `O=C1CCCN1[C@@H](c1ccc(F)cc1)[C@H](Oc1ccccn1)c1ccc(F)c(F)c1` (racemic) [Example 114], the IC50 is around 10000 nM.

With `COc1ccc(CO[C@H](c2ccc(F)c(F)c2)[C@H](c2cccnc2)N2CCCC2=O)cc1` (racemic) [Example 81], the IC50 turned out to be 3200 nM.

On to `CC1CCC(=O)N1[C@@H](c1ccc(F)cc1)[C@H](Oc1ccc(C#N)cc1)c1ccc(F)c(F)c1` (mixture of isomers) [Example 90], for which the IC50 was 4100 nM.

For `O=C1CCCN1[C@@H](c1ccc(F)cc1)[C@H](OCC1CC1)c1ccc(C(F)(F)F)cc1` (racemic) [Example 80], the IC50 is 1400 nM.

As to `CCCO[C@@H](c1ccc(Cl)cc1)[C@@H](c1ccccc1)N1CCCC1=O` (racemic) [Example 6, (1R′,2S′)-1-[2-(4-Chlorophenyl)-1-phenyl-2-propoxyethyl]pyrrolidin-2-one], the IC50 was 920 nM.

With `CCCO[C@H](c1ccncc1)[C@H](c1ccccc1)N1CCCC1=O` (racemic) [Example 97], the IC50 turned out to be 5400 nM.

For `CCCO[C@@H](c1ccccc1)[C@@H](c1ccccc1)N1CCCS1(=O)=O` [Example 54], the IC50 amounted to 1700 nM.

Consider `O=C1CCCN1[C@H](c1ccc(F)cc1)[C@H](OCC1CC1)c1cccc2ccccc12` (racemic) [Example 12, 1-[(1R′,2R′)-2-Cyclopropylmethoxy-1-(4-fluorophenyl)-2-naphthalen-1-ylethyl]pyrrolidin-2-one], for which the IC50 stood at 500 nM.

Turning to `O=C1CCCN1[C@@H](c1ccc(F)cc1)[C@H](OCC1CC1)c1ccc(OC(F)(F)F)cc1` (racemic) [Example 50], the IC50 came out at 900 nM.

Consider `COc1ccc(CO[C@H](c2cccnc2)[C@H](c2ccc(F)cc2)N2CCCC2=O)cc1` (racemic) [Example 86], for which the IC50 is 2900 nM.

Consider `O=C1CCCN1[C@H](c1ccccn1)[C@H](OCC1CC1)c1ccccc1` (racemic) [Example 63], for which the IC50 is 1700 nM.

`O=C1CCCN1[C@@H](c1ccccc1)[C@H](OCCCC(F)(F)F)c1ccc(Cl)cc1` (racemic) [Example 22]: the IC50 amounted to 500 nM.

`CCCO[C@H](c1ccccc1)[C@H](c1ccccn1)N1CCCC1=O` (racemic) [Example 71]: the IC50 stood at 1600 nM.

Take `O=C1CCCN1[C@@H](c1ccccc1)[C@H](OCc1ccccc1)c1ccc(Cl)cc1` (racemic) [Example 72]: the IC50 is 2100 nM.

For the compound `O=C1CCCN1[C@@H](c1ccc(F)cc1)[C@H](OCCCC(F)(F)F)C1CCCCC1` (racemic) [Example 24], the IC50 amounted to 650 nM.

For `CCCO[C@H](c1ccccc1)[C@H](c1ccccc1)N1CCCS1(=O)=O` [Example 7, (1S,2R)-2-(1,2-Diphenyl-2-propoxyethyl)isothiazolidine-1,1-dioxide], the IC50 was 600 nM.

In the case of `N#Cc1ccc([C@@H](OCC2CC2)[C@H](c2ccc(F)cc2)N2CCCC2=O)cc1` (racemic) [Example 41], the IC50 turned out to be 1000 nM.

In the case of `N#Cc1ccc(O[C@@H](c2cccc3cccnc23)[C@H](c2ccc(F)cc2)N2CCCC2=O)cc1` (racemic) [Example 10, 4-[(1R′,2R′)-2-(4-Fluorophenyl)-2-(2-oxopyrrolidin-1-yl)-1-quinolin-8-ylethoxy]benzonitrile], the IC50 amounted to 4400 nM.

`O=C1CCCN1C(c1ccc(F)cc1)C(OCCCC(F)(F)F)c1cccc2cccnc12` (stereo not shown) [Example 111]: the IC50 amounted to 8800 nM.

Take `C[C@](c1ccccc1)([C@H](OCC1CC1)c1ccccc1)N1CCCC1=O` (racemic) [Example 29]: the IC50 was 900 nM.

Turning to `O=C1CCCN1[C@@H](c1ccccc1)[C@H](OCc1ccc(Cl)cc1)c1ccc(Cl)cc1` (racemic) [Example 57], the IC50 came to 1000 nM.

Consider `O=C1CCCN1[C@@H](c1ccc(F)cc1)[C@H](OCC1CC1)c1cc(F)cc(F)c1` (racemic) [Example 37], for which the IC50 stood at 700 nM.

Regarding `O=C1CCCN1[C@@H](c1cccc2cccnc12)[C@H](OCC1CC1)c1ccc(F)cc1` (racemic) [Example 3, 1-[(1R′,2S′)-2-Cyclopropylmethoxy-2-(4-fluorophenyl)-1-quinolin-8-ylethyl]-pyrrolidin-2-one], the IC50 is 500 nM.

As for `O=C1CCCN1[C@@H](c1cccnc1)[C@H](OCCCC(F)(F)F)c1ccc(F)cc1` (racemic) [Example 65], the IC50 was found to be 1500 nM.

`C=CO[C@H](c1ccccc1)[C@H](c1ccccc1)N1CCCC1=O` [Example 120, 1 S,2R-1-(1,2-Diphenyl-2-vinyloxyethyl)pyrrolidin-2-one]: the IC50 was found to be 800 nM.

In the case of `CO[C@@H](c1ccccc1)[C@H](c1ccccc1)N1CCCC1=O` (racemic) [Example 82], the IC50 turned out to be 3700 nM.

As for `N#Cc1ccc(OC(c2ccc(C#N)cc2)C(c2ccc(F)cc2)N2CCCC2=O)cc1` (stereo not shown) [Example 113], the IC50 was around 10000 nM.

In the case of `COc1ccc([C@@H](Oc2ccc(C#N)cc2)[C@H](c2ccc(F)cc2)N2CCCC2=O)cc1` (racemic) [Example 59], the IC50 came out at 1900 nM.

`N#Cc1ccc(O[C@H](c2ccc(F)c(F)c2)[C@H](c2ccc(F)cc2)N2CCCCC2=O)cc1` (racemic) [Example 107]: the IC50 amounted to 9600 nM.

With `O=C1CCCN1[C@@H](c1ccc(F)cc1)[C@H](OCC1CC1)c1ccc(F)c(F)c1` (racemic) [Example 42], the IC50 worked out at 600 nM.

`O=C1CCCN1[C@@H](c1ccccc1)[C@H](OCC1CC1)c1ccc(F)cc1` (racemic) [Example 44]: the IC50 amounted to 500 nM.

On to `COc1ccc([C@@H](OCC2CC2)[C@H](c2ccc(F)cc2)N2CCCC2=O)cc1` (racemic) [Example 73], for which the IC50 came to 1000 nM.

As for `N#Cc1ccc(OC(c2ccnc3ccccc23)C(c2ccc(F)cc2)N2CCCC2=O)cc1` (stereo not shown) [Example 105], the IC50 amounted to 4600 nM.

In the case of `CCCO[C@@H](c1ccc(Cl)cc1)[C@H](c1ccccc1)N1CCCC1=O` (racemic) [Example 28], the IC50 was determined as 900 nM.

For `O=C1CCCN1[C@@H](c1cccnc1)[C@H](OCc1ccc(Cl)cc1)c1ccc(F)c(F)c1` (racemic) [Example 100], the IC50 was 5400 nM.

As for `CO[C@H](c1ccc(F)cc1)[C@H](c1ccc(F)cc1)N1CCCC1=O` (racemic) [Example 79], the IC50 was 3400 nM.

In the case of `COc1ccc([C@@H](Oc2ccc(C(C)=O)cc2)[C@H](c2ccc(F)cc2)N2CCCC2=O)cc1` (racemic) [Example 110], the IC50 amounted to 9700 nM.

As to `N#Cc1ccc(O[C@H](c2ccc(Cl)cc2)[C@H](c2ccccc2)N2CCCC2=O)cc1` (racemic) [Example 45], the IC50 was found to be 1000 nM.

As for `CO[C@H](c1ccc(Cl)cc1)[C@H](c1ccccc1)N1CCCCC1=O` (racemic) [Example 67], the IC50 stood at 1200 nM.

Consider `COc1ccc(CO[C@H](c2ccc(F)cc2)[C@@H](c2ccc(F)cc2)N2CCCC2=O)cc1` (racemic) [Example 94], for which the IC50 was 5300 nM.

As for `CS(=O)(=O)c1ccc([C@@H](OCC2CC2)[C@H](c2ccc(F)cc2)N2CCCC2=O)cc1` (racemic) [Example 61], the IC50 turned out to be 1800 nM.

Take `COc1ccc(CO[C@H](c2ccc(F)cc2)[C@H](c2cccc3cccnc23)N2CCCC2=O)cc1` (racemic) [Example 98]: the IC50 amounted to 5500 nM.

Take `O=C1CCCN1[C@@H](c1ccc(F)cc1)[C@@H](OCC1CC1)c1cccc2cccnc12` (racemic) [Example 75]: the IC50 worked out at 1400 nM.

For the compound `CCCO[C@H](c1ccc(Cl)cc1)[C@H](c1ccccc1)N1CCCCC1=O` (racemic) [Example 13], the IC50 amounted to 210 nM.

In the case of `N#Cc1ccc(O[C@H](c2ccc(OC(F)(F)F)cc2)[C@H](c2ccc(F)cc2)N2CCCC2=O)cc1` (racemic) [Example 108], the IC50 came out at 9000 nM.
